# Columns and labels:
# SIK2 = SIK2 (Homo sapiens (Human), UniProt Q9H0K1); assay: Kinome-wide profiling; format: biochemical; settings: read-out: % Residual Activity (mean)
# TRKC = TRKC (Homo sapiens (Human), UniProt Q16288); assay: Kinome-wide profiling; format: biochemical; settings: read-out: % Residual Activity (mean)
# RIPK4 = RIPK4 (Homo sapiens (Human), UniProt P57078); assay: Kinome-wide profiling; format: biochemical; settings: read-out: % Residual Activity (mean)
# PDGFRb = PDGFRb (Homo sapiens (Human), UniProt P09619); assay: Kinome-wide profiling; format: biochemical; settings: read-out: % Residual Activity (mean)
# Sequence of PDGFRb (P09619 33-1106): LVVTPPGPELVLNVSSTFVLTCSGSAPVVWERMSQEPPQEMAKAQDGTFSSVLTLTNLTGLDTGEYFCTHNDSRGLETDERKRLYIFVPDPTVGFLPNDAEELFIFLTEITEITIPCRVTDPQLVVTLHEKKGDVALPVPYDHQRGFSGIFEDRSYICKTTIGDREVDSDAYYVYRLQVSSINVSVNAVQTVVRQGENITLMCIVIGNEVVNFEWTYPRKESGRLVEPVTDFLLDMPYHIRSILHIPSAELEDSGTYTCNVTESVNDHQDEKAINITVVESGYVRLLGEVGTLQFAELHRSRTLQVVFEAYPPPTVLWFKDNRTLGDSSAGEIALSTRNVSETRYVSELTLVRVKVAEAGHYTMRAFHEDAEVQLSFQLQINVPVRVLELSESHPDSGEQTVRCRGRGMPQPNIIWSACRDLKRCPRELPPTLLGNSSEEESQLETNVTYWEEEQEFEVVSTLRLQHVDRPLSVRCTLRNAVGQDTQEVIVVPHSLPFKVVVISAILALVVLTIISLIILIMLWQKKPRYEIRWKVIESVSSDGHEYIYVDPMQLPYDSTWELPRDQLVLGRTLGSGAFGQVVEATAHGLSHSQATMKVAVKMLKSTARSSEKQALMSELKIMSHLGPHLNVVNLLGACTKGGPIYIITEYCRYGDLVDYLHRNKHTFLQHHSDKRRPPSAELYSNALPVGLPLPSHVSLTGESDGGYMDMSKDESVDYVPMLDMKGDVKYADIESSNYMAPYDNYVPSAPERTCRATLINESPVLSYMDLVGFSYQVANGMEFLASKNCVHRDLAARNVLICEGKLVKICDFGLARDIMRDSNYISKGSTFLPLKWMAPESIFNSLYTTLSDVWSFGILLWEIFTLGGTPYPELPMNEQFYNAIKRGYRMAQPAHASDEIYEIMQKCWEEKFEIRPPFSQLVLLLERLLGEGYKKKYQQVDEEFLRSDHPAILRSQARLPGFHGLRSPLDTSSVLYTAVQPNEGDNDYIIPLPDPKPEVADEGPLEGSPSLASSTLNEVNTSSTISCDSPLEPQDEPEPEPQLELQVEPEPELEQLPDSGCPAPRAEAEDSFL
# [1] = tested on: 371 human wild-type kinases; assay: Kinome-wide inhibitory activity profiling (panel summary); format: biochemical; settings: 10 μM; CDK1, 2, 3, 5, 7, 9, 17, 18 complexes, LKB1, EPHA3/4/5/6, EPHB2, DYRK1A/B, MAK, MYLK4, GSK3b, FES, CHK2, PAK5, ERK1
# MRCKb/CDC42BPB = MRCKb/CDC42BPB (Homo sapiens (Human), UniProt Q9Y5S2); assay: Kinome-wide profiling; format: biochemical; settings: read-out: % Residual Activity (mean)
# p70S6K/RPS6KB1 = p70S6K/RPS6KB1 (Homo sapiens (Human), UniProt P23443); assay: Kinome-wide profiling; format: biochemical; settings: read-out: % Residual Activity (mean)
# Sequence of p70S6K/RPS6KB1 (P23443 whole entry): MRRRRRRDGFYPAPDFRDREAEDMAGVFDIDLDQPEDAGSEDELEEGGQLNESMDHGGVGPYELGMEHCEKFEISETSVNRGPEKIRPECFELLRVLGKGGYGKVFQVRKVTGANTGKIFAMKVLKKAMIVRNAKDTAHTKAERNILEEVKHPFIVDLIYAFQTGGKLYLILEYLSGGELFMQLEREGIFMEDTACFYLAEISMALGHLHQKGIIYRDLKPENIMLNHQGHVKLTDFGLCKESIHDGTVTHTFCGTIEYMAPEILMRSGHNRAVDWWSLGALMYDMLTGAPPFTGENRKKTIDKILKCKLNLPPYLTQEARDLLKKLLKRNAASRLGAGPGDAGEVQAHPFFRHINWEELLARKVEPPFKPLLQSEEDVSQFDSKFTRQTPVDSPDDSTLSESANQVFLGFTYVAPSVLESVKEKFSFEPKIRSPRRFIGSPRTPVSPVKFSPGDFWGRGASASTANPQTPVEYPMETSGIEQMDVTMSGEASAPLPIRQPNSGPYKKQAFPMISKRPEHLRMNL
# PAK3 = PAK3 (Homo sapiens (Human), UniProt O75914); assay: Kinome-wide profiling; format: biochemical; settings: read-out: % Residual Activity (mean)
# LATS2 = LATS2 (Homo sapiens (Human), UniProt Q9NRM7); assay: Kinome-wide profiling; format: biochemical; settings: read-out: % Residual Activity (mean)
# Sequence of LATS2 (Q9NRM7 whole entry): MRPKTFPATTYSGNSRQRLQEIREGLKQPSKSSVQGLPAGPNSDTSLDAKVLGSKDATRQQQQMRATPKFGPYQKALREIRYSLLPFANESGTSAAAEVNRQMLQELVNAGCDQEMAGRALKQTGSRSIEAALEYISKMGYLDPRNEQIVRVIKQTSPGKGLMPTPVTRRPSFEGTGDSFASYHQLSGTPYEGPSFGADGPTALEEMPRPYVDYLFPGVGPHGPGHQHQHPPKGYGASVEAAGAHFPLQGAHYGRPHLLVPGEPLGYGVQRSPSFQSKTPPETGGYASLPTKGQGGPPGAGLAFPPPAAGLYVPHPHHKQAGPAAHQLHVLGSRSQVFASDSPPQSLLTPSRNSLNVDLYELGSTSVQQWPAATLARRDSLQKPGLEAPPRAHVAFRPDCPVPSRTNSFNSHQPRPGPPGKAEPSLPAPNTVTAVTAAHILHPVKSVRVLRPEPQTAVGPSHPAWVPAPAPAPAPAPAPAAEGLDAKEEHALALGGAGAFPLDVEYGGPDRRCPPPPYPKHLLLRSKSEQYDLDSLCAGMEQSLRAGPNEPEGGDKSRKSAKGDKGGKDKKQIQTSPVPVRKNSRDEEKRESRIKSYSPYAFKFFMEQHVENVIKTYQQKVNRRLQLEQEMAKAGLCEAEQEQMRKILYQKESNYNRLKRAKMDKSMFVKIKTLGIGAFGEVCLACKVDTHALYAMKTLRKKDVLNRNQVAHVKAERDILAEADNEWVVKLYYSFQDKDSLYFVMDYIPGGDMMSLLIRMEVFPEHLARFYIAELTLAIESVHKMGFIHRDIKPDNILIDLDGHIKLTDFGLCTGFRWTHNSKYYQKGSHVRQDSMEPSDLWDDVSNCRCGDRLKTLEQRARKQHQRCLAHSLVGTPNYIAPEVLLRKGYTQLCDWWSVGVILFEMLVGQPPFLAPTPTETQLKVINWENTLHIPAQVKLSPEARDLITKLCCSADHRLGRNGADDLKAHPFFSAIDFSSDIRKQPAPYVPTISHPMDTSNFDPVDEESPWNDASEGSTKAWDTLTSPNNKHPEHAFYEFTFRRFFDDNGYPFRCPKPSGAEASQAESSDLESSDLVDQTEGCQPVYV
# MLCK2/MYLK2 = MLCK2/MYLK2 (Homo sapiens (Human), UniProt Q9H1R3); assay: Kinome-wide profiling; format: biochemical; settings: read-out: % Residual Activity (mean)
# PKCg = PKCg (Homo sapiens (Human), UniProt P05129); assay: Kinome-wide profiling; format: biochemical; settings: read-out: % Residual Activity (mean)
# CDK6/cyclin D3 = CDK6/cyclin D3 (Homo sapiens (Human), UniProt Q00534); assay: Kinome-wide profiling; format: biochemical; settings: read-out: % Residual Activity (mean)
# RSK1 = RSK1 (Homo sapiens (Human), UniProt Q15418); assay: Kinome-wide profiling; format: biochemical; settings: read-out: % Residual Activity (mean)
# MRCKa/CDC42BPA = MRCKa/CDC42BPA (Homo sapiens (Human), UniProt Q5VT25); assay: Kinome-wide profiling; format: biochemical; settings: read-out: % Residual Activity (mean)
# LCK = LCK (Homo sapiens (Human), UniProt P06239); assay: Kinome-wide profiling; format: biochemical; settings: read-out: % Residual Activity (mean)
# Sequence of LCK (P06239 whole entry): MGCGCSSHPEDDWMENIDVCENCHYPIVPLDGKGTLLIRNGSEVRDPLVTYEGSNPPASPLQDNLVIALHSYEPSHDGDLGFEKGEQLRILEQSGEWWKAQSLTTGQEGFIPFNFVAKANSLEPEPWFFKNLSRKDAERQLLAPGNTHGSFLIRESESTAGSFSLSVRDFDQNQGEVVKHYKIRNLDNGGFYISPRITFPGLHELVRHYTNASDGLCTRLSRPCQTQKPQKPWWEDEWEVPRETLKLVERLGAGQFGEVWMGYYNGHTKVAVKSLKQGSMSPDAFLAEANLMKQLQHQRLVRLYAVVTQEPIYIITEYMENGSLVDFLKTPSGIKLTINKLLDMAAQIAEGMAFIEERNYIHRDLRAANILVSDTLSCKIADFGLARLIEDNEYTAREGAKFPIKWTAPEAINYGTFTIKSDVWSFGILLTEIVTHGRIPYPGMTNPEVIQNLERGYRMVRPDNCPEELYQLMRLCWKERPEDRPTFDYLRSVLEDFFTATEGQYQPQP
# AKT1 = AKT1 (Homo sapiens (Human), UniProt P31749); assay: Kinome-wide profiling; format: biochemical; settings: read-out: % Residual Activity (mean)
# BRK = BRK (Homo sapiens (Human), UniProt Q13882); assay: Kinome-wide profiling; format: biochemical; settings: read-out: % Residual Activity (mean)
# PKG1b = PKG1b (Homo sapiens (Human), UniProt Q13976); assay: Kinome-wide profiling; format: biochemical; settings: read-out: % Residual Activity (mean)
# LATS1 = LATS1 (Homo sapiens (Human), UniProt O95835); assay: Kinome-wide profiling; format: biochemical; settings: read-out: % Residual Activity (mean)
# Sequence of LATS1 (O95835 whole entry): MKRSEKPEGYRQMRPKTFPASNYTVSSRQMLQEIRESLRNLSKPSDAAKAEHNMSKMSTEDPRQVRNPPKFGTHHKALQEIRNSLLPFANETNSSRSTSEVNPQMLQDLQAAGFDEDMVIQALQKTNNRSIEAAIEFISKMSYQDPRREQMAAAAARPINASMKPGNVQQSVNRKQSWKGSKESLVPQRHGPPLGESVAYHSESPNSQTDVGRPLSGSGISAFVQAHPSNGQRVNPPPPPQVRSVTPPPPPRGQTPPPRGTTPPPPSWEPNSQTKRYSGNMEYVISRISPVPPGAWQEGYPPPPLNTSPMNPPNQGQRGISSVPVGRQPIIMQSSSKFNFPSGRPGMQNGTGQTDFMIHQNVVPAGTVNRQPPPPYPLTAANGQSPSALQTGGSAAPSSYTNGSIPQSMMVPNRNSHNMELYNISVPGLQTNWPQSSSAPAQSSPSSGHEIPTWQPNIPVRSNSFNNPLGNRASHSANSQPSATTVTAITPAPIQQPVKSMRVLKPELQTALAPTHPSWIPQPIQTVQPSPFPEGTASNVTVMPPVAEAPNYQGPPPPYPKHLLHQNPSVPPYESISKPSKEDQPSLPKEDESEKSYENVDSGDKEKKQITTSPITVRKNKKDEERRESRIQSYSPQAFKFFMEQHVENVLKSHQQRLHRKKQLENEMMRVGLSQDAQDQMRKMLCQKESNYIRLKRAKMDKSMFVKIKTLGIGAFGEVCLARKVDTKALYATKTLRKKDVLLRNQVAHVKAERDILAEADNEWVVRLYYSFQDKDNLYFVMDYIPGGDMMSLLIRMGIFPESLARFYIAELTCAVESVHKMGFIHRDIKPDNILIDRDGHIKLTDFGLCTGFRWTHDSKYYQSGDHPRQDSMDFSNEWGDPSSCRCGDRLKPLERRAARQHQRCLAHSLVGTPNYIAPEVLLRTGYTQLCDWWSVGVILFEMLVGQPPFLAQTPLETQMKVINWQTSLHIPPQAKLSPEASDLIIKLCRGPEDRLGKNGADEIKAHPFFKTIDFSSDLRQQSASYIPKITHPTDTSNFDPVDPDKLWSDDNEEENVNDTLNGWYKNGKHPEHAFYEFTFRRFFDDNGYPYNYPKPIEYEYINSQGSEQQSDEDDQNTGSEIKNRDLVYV
# CK2a2 = CK2a2 (Homo sapiens (Human), UniProt P19784); assay: Kinome-wide profiling; format: biochemical; settings: read-out: % Residual Activity (mean)
# Sequence of CK2a2 (P19784 whole entry): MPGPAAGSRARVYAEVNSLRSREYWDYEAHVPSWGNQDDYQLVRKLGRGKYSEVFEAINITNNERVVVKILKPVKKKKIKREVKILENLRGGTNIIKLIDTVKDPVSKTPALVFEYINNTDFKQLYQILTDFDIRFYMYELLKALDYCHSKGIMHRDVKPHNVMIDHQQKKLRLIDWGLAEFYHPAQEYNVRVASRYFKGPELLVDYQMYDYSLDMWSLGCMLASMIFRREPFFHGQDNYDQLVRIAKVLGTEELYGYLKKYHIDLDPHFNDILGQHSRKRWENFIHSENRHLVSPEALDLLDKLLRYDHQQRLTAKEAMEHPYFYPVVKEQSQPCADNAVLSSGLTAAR
# STK21/CIT = STK21/CIT (Homo sapiens (Human), UniProt O14578); assay: Kinome-wide profiling; format: biochemical; settings: read-out: % Residual Activity (mean)
# CYP1A2 = CYP1A2 (Homo sapiens (Human), UniProt P05177); assay: in vitro; format: in vitro ADME
# Protocol: 5 derivatives were evaluated for in vitro metabolic stability in liver microsomes from three different species (human, dog, mouse) and for inhibitory activity against 5 representative cytochrome P450 enzymes (CYPs)(Table 3). In terms of liver microsomal stability, the 2′-pyridyl group is more suitable than the α-methyl-4′-pyridyl group as the terminal aromatic group at position 6, and the aminopyrimidyl group is better than the aminopyridyl group as a substituent at position 2.
# MELK = MELK (Homo sapiens (Human), UniProt Q14680); assay: Kinome-wide profiling; format: biochemical; settings: read-out: % Residual Activity (mean)
# CLK4 = CLK4 (Homo sapiens (Human), UniProt Q9HAZ1); assay: Kinome-wide profiling; format: biochemical; settings: read-out: % Residual Activity (mean)
# Aurora A = Aurora A (Homo sapiens (Human), UniProt O14965); assay: Kinome-wide profiling; format: biochemical; settings: read-out: % Residual Activity (mean)
# CDK12/CyclinK = CDK12/CyclinK (Homo sapiens (Human), UniProt Q9NYV4); assay: CDK12/cyclinK enzyme activity; format: biochemical; settings: in vitro
# FER = FER (Homo sapiens (Human), UniProt P16591); assay: Kinome-wide profiling; format: biochemical; settings: read-out: % Residual Activity (mean)
# CLK2 = CLK2 (Homo sapiens (Human), UniProt P49760); assay: Kinome-wide profiling; format: biochemical; settings: read-out: % Residual Activity (mean)
# WEE1 = WEE1 (Homo sapiens (Human), UniProt P30291); assay: Kinome-wide profiling; format: biochemical; settings: read-out: % Residual Activity (mean)
# PKD2/PRKD2 = PKD2/PRKD2 (Homo sapiens (Human), UniProt Q9BZL6); assay: Kinome-wide profiling; format: biochemical; settings: read-out: % Residual Activity (mean)
# TNIK = TNIK (Homo sapiens (Human), UniProt Q9UKE5); assay: Kinome-wide profiling; format: biochemical; settings: read-out: % Residual Activity (mean)
# NIM1 = NIM1 (Homo sapiens (Human), UniProt Q8IY84); assay: Kinome-wide profiling; format: biochemical; settings: read-out: % Residual Activity (mean)
# TLK1 = TLK1 (Homo sapiens (Human), UniProt Q9UKI8); assay: Kinome-wide profiling; format: biochemical; settings: read-out: % Residual Activity (mean)
# PBK/TOPK = PBK/TOPK (Homo sapiens (Human), UniProt Q96KB5); assay: Kinome-wide profiling; format: biochemical; settings: read-out: % Residual Activity (mean)
# Sequence of PBK/TOPK (Q96KB5 whole entry): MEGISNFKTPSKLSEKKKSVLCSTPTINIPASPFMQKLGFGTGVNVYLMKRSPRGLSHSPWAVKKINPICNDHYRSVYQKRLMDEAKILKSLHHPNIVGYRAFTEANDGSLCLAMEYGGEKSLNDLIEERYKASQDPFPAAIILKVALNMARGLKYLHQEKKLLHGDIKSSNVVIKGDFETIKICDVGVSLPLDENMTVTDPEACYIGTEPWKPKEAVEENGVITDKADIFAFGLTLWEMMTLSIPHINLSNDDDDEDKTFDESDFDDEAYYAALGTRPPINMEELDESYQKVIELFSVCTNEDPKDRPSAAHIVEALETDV
# CDK2/cyclin A1 = CDK2/cyclin A1 (Homo sapiens (Human), UniProt P24941); assay: Kinome-wide profiling; format: biochemical; settings: read-out: % Residual Activity (mean)
# AXL = AXL (Homo sapiens (Human), UniProt P30530); assay: Kinome-wide profiling; format: biochemical; settings: read-out: % Residual Activity (mean)
smiles,measurement,setting,value
"CCn1cnc2c(NCc3ccc(-c4ccccn4)nc3)nc(-c3ccc(N)nc3)nc21 [Example 53, N-([2,2′-bipyridin]-5-ylmethyl)-2-(6-aminopyridin-3-yl)-9-ethyl-9H-purin-6-amine]",remaining activity at 10 µM,SIK2,35.9%
same,remaining activity at 10 µM,TRKC,54.9%
same,remaining activity at 10 µM,RIPK4,97.8%
same,remaining activity at 10 µM,PDGFRb,34.7%
same,kinase inhibition,[1],≥ 90%
same,remaining activity at 10 µM,MRCKb/CDC42BPB,99.3%
same,remaining activity at 10 µM,p70S6K/RPS6KB1,92.1%
same,remaining activity at 10 µM,PAK3,29.1%
same,remaining activity at 10 µM,LATS2,77.4%
same,remaining activity at 10 µM,MLCK2/MYLK2,60%
same,remaining activity at 10 µM,PKCg,49.5%
same,remaining activity at 10 µM,CDK6/cyclin D3,12.9%
same,remaining activity at 10 µM,RSK1,59.1%
same,remaining activity at 10 µM,MRCKa/CDC42BPA,96.6%
same,remaining activity at 10 µM,LCK,83.6%
same,remaining activity at 10 µM,AKT1,94.9%
same,remaining activity at 10 µM,BRK,46.6%
same,remaining activity at 10 µM,PKG1b,97.6%
same,remaining activity at 10 µM,LATS1,85%
same,remaining activity at 10 µM,CK2a2,91.3%
same,remaining activity at 10 µM,STK21/CIT,97.9%
same,activity at 10 µM,CYP1A2,74.7%
same,remaining activity at 10 µM,MELK,21.1%
same,remaining activity at 10 µM,CLK4,28.7%
same,remaining activity at 10 µM,Aurora A,33.4%
same,IC50,CDK12/CyclinK,0.03 µM
same,remaining activity at 10 µM,FER,52.3%
same,remaining activity at 10 µM,CLK2,11.7%
same,remaining activity at 10 µM,WEE1,90.2%
same,remaining activity at 10 µM,PKD2/PRKD2,72.3%
same,remaining activity at 10 µM,TNIK,69%
same,remaining activity at 10 µM,NIM1,76%
same,remaining activity at 10 µM,TLK1,67.8%
same,remaining activity at 10 µM,PBK/TOPK,93.5%
same,remaining activity at 10 µM,CDK2/cyclin A1,0.16%
same,remaining activity at 10 µM,AXL,44.2%

# Source: US20250101023A1, “HETEROARYL DERIVATIVE AND USES THEREOF” (IUCF-HYU (INDUSTRY-UNIVERSITY COOPERATION FOUNDATION …, priority 2022, published 2025)
